According to PubChem BioAssay AID330 (DTP/NCI, 2004):
Where “and” joins values, the source holds several entries; their conditions need not be identical. Equal entries are not always repeated. Toxic doses and inconclusive results are not listed.

Tested on: P388 leukemia ip, CD2F1 mice, survival T/C
Test: NCI In Vivo Anticancer Drug Screen. Data for tumor model P388 Leukemia (intraperitoneal) in CD2F1 (CDF1) mice
Settings: endpoint: median survival time, higher = longer survival
Procedure, shortened: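 Mice carrying the transplanted tumor received test compound or vehicle. Survival was recorded in each group, and the value is the treated-group measurement divided by that of the vehicle-treated control group.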

[1] = dose: 50.0 mg/kg/injection, schedule: Q01DX009 (ip), vehicle: saline with Tween-80
[2] = dose: 100.0 mg/kg/injection, schedule: Q01DX009 (ip), vehicle: saline with Tween-80
[3] = dose: 60.0 mg/kg/injection, schedule: Q01DX005 (ip), vehicle: Klucel (hydroxypropylcellulose) (HPC)
[4] = dose: 120.0 mg/kg/injection, schedule: Q01DX005 (ip), vehicle: Klucel (hydroxypropylcellulose) (HPC)
[5] = dose: 25.0 mg/kg/injection, schedule: Q01DX009 (ip), vehicle: saline with Tween-80

In the case of `Oc1cccc(Nc2ccccc2)c1`, the T/C (dose: 50.0 mg/kg/injection, schedule: Q01DX009 (ip), vehicle: olive oil, sesame oil, peanut oil) is reported as 108 % of control, the T/C (dose: 100.0 mg/kg/injection, schedule: Q01DX009 (ip), vehicle: olive oil, sesame oil, peanut oil) is reported as 103 % of control and the T/C (dose: 200.0 mg/kg/injection, schedule: Q01DX009 (ip), vehicle: olive oil, sesame oil, peanut oil) is reported as 111 % of control.
With `CSC(N)=Nc1cccc2c1CCCC2` the T/C (dose: 25.0 mg/kg/injection, schedule: Q01DX009 (ip), vehicle: saline) was 100 % of control, the T/C (dose: 50.0 mg/kg/injection, schedule: Q01DX009 (ip), vehicle: saline) was 100 % of control and the T/C (dose: 100.0 mg/kg/injection, schedule: Q01DX009 (ip), vehicle: saline) was 95 % of control.
With `C#CCOc1ccccc1C(=O)NNc1ccc([N+](=O)[O-])cc1[N+](=O)[O-]` the T/C [1] was 97 % of control and the T/C [2] was 87 % of control.
For `N#CC1=C(Nc2ccccc2Cl)SC(c2c(Cl)cccc2Cl)NC1=O` (centres undefined), the T/C [3] was 90 % of control, the T/C [4] was 100 % of control and the T/C (dose: 240.0 mg/kg/injection, schedule: Q01DX005 (ip), vehicle: Klucel (hydroxypropylcellulose) (HPC)) was 93 % of control.
In the case of `O=C1CN2C(=O)C1(c1ccccc1)C(=O)NC2=S` (centres undefined), the T/C (dose: 100.0 mg/kg/injection, schedule: Q04DX002 (ip), vehicle: Klucel (hydroxypropylcellulose) (HPC)) is reported as 105 % of control, the T/C (dose: 200.0 mg/kg/injection, schedule: Q04DX002 (ip), vehicle: Klucel (hydroxypropylcellulose) (HPC)) is reported as 106 % of control and the T/C (dose: 400.0 mg/kg/injection, schedule: Q04DX002 (ip), vehicle: Klucel (hydroxypropylcellulose) (HPC)) is reported as 106 % of control.
With `C1CCC2C(C1)CC[N-]C2CCC1[N-]CCC2CCCCC21.C1CCC2C(C1)CC[N-]C2CCC1[N-]CCC2CCCCC21.[Ni+2].[O-][Cl+3]([O-])([O-])O` (centres undefined) the T/C (dose: 25.0 mg/kg/injection, schedule: Q01DX001 (ip), vehicle: saline) was 100 % of control, the T/C (dose: 50.0 mg/kg/injection, schedule: Q01DX001 (ip), vehicle: saline) was 100 % of control and 101 % of control and the T/C (dose: 100.0 mg/kg/injection, schedule: Q01DX001 (ip), vehicle: saline) was 101 % of control and 108 % of control and 97 % of control. The T/C (dose: 200.0 mg/kg/injection, schedule: Q01DX001 (ip), vehicle: saline) was 98 % of control and 100 % of control.
For `COC(=O)C1=CN(c2ccccc2)C(=O)C1`, the T/C (dose: 100.0 mg/kg/injection, schedule: Q04DX003 (ip), vehicle: Klucel (hydroxypropylcellulose) (HPC)) was 118 % of control, the T/C (dose: 200.0 mg/kg/injection, schedule: Q04DX003 (ip), vehicle: Klucel (hydroxypropylcellulose) (HPC)) was 114 % of control and the T/C (dose: 400.0 mg/kg/injection, schedule: Q04DX003 (ip), vehicle: Klucel (hydroxypropylcellulose) (HPC)) was 108 % of control.
`CCSc1nc2ccc(N=Cc3ccccc3O)cc2s1` was tested, and the T/C (dose: 12.5 mg/kg/injection, schedule: Q01DX009 (ip), vehicle: Klucel (hydroxypropylcellulose) (HPC)) was 99 % of control and 88 % of control, the T/C (dose: 25.0 mg/kg/injection, schedule: Q01DX009 (ip), vehicle: Klucel (hydroxypropylcellulose) (HPC)) was 101 % of control and 93 % of control and the T/C (dose: 100.0 mg/kg/injection, schedule: Q01DX009 (ip), vehicle: Klucel (hydroxypropylcellulose) (HPC)) was 106 % of control and 218 % of control and 91 % of control.
With `CC(C)SC(=S)S(=O)(=O)c1ccc(Cl)cc1` the T/C [5] was 104 % of control and 110 % of control, the T/C [1] was 107 % of control (2×) and 111 % of control and the T/C [2] was 104 % of control and 114 % of control and 121 % of control.
In the case of `S=C(S)NN1CCCC1`, the T/C (dose: 12.5 mg/kg/injection, schedule: Q01DX009 (ip), vehicle: saline with Tween-80) is reported as 100 % of control, the T/C [5] is reported as 100 % of control and the T/C [1] is reported as 100 % of control.
In the case of `c1ccc(-c2ncc[nH]2)cc1`, the T/C (dose: 100.0 mg/kg/injection, schedule: Q01DX001 (ip), vehicle: saline with Tween-80) is reported as 98 % of control and the T/C (dose: 200.0 mg/kg/injection, schedule: Q01DX001 (ip), vehicle: saline with Tween-80) is reported as 97 % of control.
For `O=c1nc(-c2ccccc2)nc(-c2ccccc2)[nH]1`, the T/C (dose: 100.0 mg/kg/injection, schedule: Q04DX002 (ip), vehicle: saline with Tween-80) was 93 % of control, the T/C (dose: 200.0 mg/kg/injection, schedule: Q04DX002 (ip), vehicle: saline with Tween-80) was 89 % of control and the T/C (dose: 400.0 mg/kg/injection, schedule: Q04DX002 (ip), vehicle: saline with Tween-80) was 108 % of control.
In the case of `CN(C)c1ccc(/C=C/C=N/NC(=S)NC23CC4CC(CC(C4)C2)C3)cc1`, the T/C (dose: 60.0 mg/kg/injection, schedule: Q01DX005 (ip), vehicle: saline with Tween-80) is reported as 89 % of control and the T/C (dose: 120.0 mg/kg/injection, schedule: Q01DX005 (ip), vehicle: saline with Tween-80) is reported as 86 % of control.
For `COc1ccc(C2OC3=C(Nc4cc(C)c(C)cc4N3)C2=O)cc1` (centres undefined), the T/C [3] was 89 % of control and the T/C [4] was 89 % of control.
